# Measured values from patent publication US10039284B2, “Pesticidal compositions” (priority 2006, dated 2018).
# Where two headings read alike, the source gives them in different places.
# Tests used:
# [1] = system: Common Cutworm (Spodoptera litura); experiment: whole plant or invertebrate; conditions: for Mortality (%): 5th or 6th day
# Procedure: They were diluted to a predetermined concentration with water containing a spreader (Shin-Rinoh 0.040) and subjected to the test by themselves or as a mixed liquid.
# A leaf segment of cabbage was dipped for about 10 seconds in an insecticidal solution and dried in air. A wet filter paper was laid in a petri dish having a diameter of 9 cm, and the dried leaf segment of cabbage was placed thereon. 10 Second-instar larvae of common cutworm were released therein and after putting a cover, left in a constant temperature chamber at 25° C. with lightening. On the 5th or 6th day after release, dead larvae were counted, and the mortality was calculated by the following equation. Here, the insects that were moribund were counted as dead insects. Mortality (%)={(number of dead insects)/(number of surviving insects+number of dead insects)}×100
# Further, the theoretical mortality (%) can be calculated from the colby's formula.
# [2] = system: Green Peach Aphid (Myzus persicae); experiment: Test on Controlling Effects Against Green Peach Aphid (radish leaf dip); format: in vivo; conditions: third day after the dipping; for mortality at 0.05 ppm: other pesticide alone 0.05 ppm; for mortality at 100 ppm: other pesticide alone 100 ppm; for mortality at 200 ppm: other pesticide alone 200 ppm
# Procedure: Japanese radish leaf (cut into about 2 cm×3 cm) was put in a test tube in which water was put, and Larvae of green peach aphid were released on the leaf. […] On the third day after the dipping, dead larvae were counted, and the mortality was calculated from the following equation. Aphids that dropped from leaf or were moribund were included in the number of dead. […] Mortality (%)=(number of dead insects/number of treated insects)×100
# [3] = system: Green Rice Leafhopper (Nephotettix cincticeps); experiment: Test on Controlling Effects Against Green Rice Leafhopper (rice seedling dip); format: in vivo
# Description: The root was wrapped with absorbent cotton wet with water, and the rice seedling was put in a test tube.
# [4] = Spodoptera litura, in Brassica oleracea, foliar
molecule,measurement,setting,value
CC(C)([CH2][Sn]([CH2]C(C)(C)c1ccccc1)([CH2]C(C)(C)c1ccccc1)[O][Sn]([CH2]C(C)(C)c1ccccc1)([CH2]C(C)(C)c1ccccc1)[CH2]C(C)(C)c1ccccc1)c1ccccc1 [fenbutatin oxide],Mortality (%),[1]; other pesticide alone 200 ppm,0%
"C[C@H]1O[C@H](O[C@H]2[C@H](O)[C@@H](O)[C@@H](O)[C@H](O)[C@@H]2O)[C@@H](N)C[C@@H]1NC(=N)C(=O)O [Kasugamycin, kasugamycin]",Mortality (%),[2]; other pesticide alone 11.5 ppm,0%
"CN/C(=N/CC1CCOC1)N[N+](=O)[O-] (stereo not shown) [Dinotefuran, dinotefuran]",mortality at 3.1 ppm,[1]; [4],0%
same,mortality at 6.2 ppm,[1]; [4],0%
same,mortality at 12.5 ppm,[1]; [4],13%
"O=C1CCc2cccc3c2N1CC3 [Pyroquilon, pyroquilon]",mortality at 50 ppm,[1]; [4],0%
same,mortality at 100 ppm,[1]; [4],0%
same,mortality at 200 ppm,[1]; [4],0%
"CC1(C)[C@H](C(=O)O[C@H](C#N)c2cccc(Oc3ccccc3)c2)[C@@H]1C=C(Br)Br [Deltamethrin, deltamethrin]",mortality at 0.4 ppm,[1]; [4],30%
"C[C@@H](NC(=O)C(C#N)C(C)(C)C)c1ccc(Cl)cc1Cl (stereo partly shown) [Diclocymet, diclocymet]",mortality at 0.4 ppm,[3]; Nephotettix cincticeps,0%
same,mortality at 0.8 ppm,[3]; Nephotettix cincticeps,0%
same,mortality at 18.8 ppm,[1]; [4],0%
same,mortality at 37.5 ppm,[1]; [4],0%
same,mortality at 75 ppm,[1]; [4],0%
"N#C/N=C1\SCCN1Cc1ccc(Cl)nc1 [Thiacloprid, thiacloprid]",mortality at 50 ppm,[1]; [4],67%
"CC1(C)C(C=C(Cl)Cl)C1C(=O)OC(C#N)c1cccc(Oc2ccccc2)c1 (stereo not shown) [Zeta-cypermethrin, zeta-cypermethrin]",mortality at 0.4 ppm,[1]; [4],0%
same,mortality at 0.8 ppm,[1]; [4],0%
same,mortality at 1.5 ppm,[1]; [4],20%
"Cc1ccccc1C(=O)Nc1cccc(OC(C)C)c1 [Mepronil, mepronil]",mortality at 187.5 ppm,[3]; Nephotettix cincticeps,0%
"O=C(NC(=O)c1c(F)cccc1F)Nc1cc(Cl)c(Oc2ncc(C(F)(F)F)cc2Cl)c(Cl)c1 [Chlorfluazuron, chlorfluazuron]",mortality at 0.0025 ppm,[1]; [4],0%
same,mortality at 0.005 ppm,[1]; [4],0%
same,mortality at 0.01 ppm,[1]; [4],0%
"N#CCNC(=O)c1cnccc1C(F)(F)F [Flonicamid, flonicamid]",Mortality (%),[2]; other pesticide alone 0.8 ppm,38%
same,Mortality (%),[2]; other pesticide alone 1.5 ppm,70%
same,Mortality (%),[1]; other pesticide alone 25 ppm,0%
same,Mortality (%),[1]; other pesticide alone 50 ppm,30%
same,Mortality (%),[1]; other pesticide alone 100 ppm,0%
"CO/C=C(/C(=O)OC)c1ccccc1Oc1cc(Oc2ccccc2C#N)ncn1 [Azoxystrobin, azoxystrobin]",Mortality (%),"[3]; other pesticide alone 25 ppm, 5th or 6th day",30%
"Cc1c(COC(=O)[C@@H]2[C@H](/C=C(\Cl)C(F)(F)F)C2(C)C)cccc1-c1ccccc1 (racemic) [Bifenthrin, bifenthrin]",mortality at 0.025 ppm,"[2]; Myzus persicae, foliar, other pesticide alone 0.025 ppm",0%
same,mortality at 0.05 ppm,"[2]; Myzus persicae, foliar",4%
same,mortality at 0.4 ppm,[1]; [4],0%
same,mortality at 0.8 ppm,[1]; [4],40%
"O=C(NC(=O)c1c(F)cccc1F)Nc1cc(Cl)c(OC(F)(F)C(F)C(F)(F)F)cc1Cl (stereo not shown) [Lufenuron, lufenuron]",mortality at 0.0125 ppm,[1]; [4],70%
"CC(C)(C)c1ccc(CSc2cnn(C(C)(C)C)c(=O)c2Cl)cc1 [Pyridaben, pyridaben]",mortality at 100 ppm,[1]; [4],0%
same,mortality at 200 ppm,[1]; [4],10%
"C/C=C(\C)C(=O)O[C@H]1C[C@@H](OC(C)=O)[C@@]2(C(=O)OC)CO[C@H]3[C@@H](O)[C@@](C)([C@]45O[C@@]4(C)[C@H]4C[C@@H]5O[C@@H]5OC=C[C@@]54O)[C@H]4[C@]1(CO[C@]4(O)C(=O)OC)[C@@H]32 [Azadirachtin, azadirachtin]",mortality at 6.2 ppm,"[2]; Myzus persicae, foliar, other pesticide alone 6.2 ppm",0%
same,mortality at 12.5 ppm,"[2]; Myzus persicae, foliar, other pesticide alone 12.5 ppm",88%
same,mortality at 3.1 ppm,[1]; [4],0%
"CCOCn1c(-c2ccc(Cl)cc2)c(C#N)c(Br)c1C(F)(F)F [Chlorfenapyr, chlorfenapyr]",mortality at 0.4 ppm,[1]; [4],20%
"C#CCOS(=O)OC1CCCCC1Oc1ccc(C(C)(C)C)cc1 (stereo not shown) [Propargite, propargite]",mortality at 50 ppm,[1]; [4],0%
same,mortality at 100 ppm,[1]; [4],0%
same,mortality at 200 ppm,[1]; [4],0%
"CC(=O)N1C(=O)N(NCc2cccnc2)Cc2cc(C(F)(C(F)(F)F)C(F)(F)F)ccc21 [Pyrifluquinazon, pyrifluquinazon]",Mortality (%),[1]; other pesticide alone 25 ppm,0%
same,Mortality (%),[1]; other pesticide alone 50 ppm,0%
same,Mortality (%),[1]; other pesticide alone 100 ppm,0%
"OCC1=C[C@H](N[C@H]2C[C@H](CO)[C@@H](O[C@@H]3O[C@H](CO)[C@@H](O)[C@H](O)[C@H]3O)[C@H](O)[C@H]2O)[C@H](O)[C@@H](O)[C@@H]1O [Validamycin, validamycin]",mortality at 25 ppm,[1]; [4],0%
same,mortality at 50 ppm,[1]; [4],0%
"CC(C)Oc1cccc(NC(=O)c2ccccc2C(F)(F)F)c1 [Flutolanil, flutolanil]",mortality at 125 ppm,"[2]; Myzus persicae, foliar, other pesticide alone 125 ppm",0%
same,mortality at 250 ppm,"[2]; Myzus persicae, foliar, other pesticide alone 250 ppm",6%
"O=C1OCc2c(Cl)c(Cl)c(Cl)c(Cl)c21 [Fthalide, fthalide]",mortality at 50 ppm,"[3]; Nephotettix cincticeps, other pesticide alone 50 ppm, 5th or 6th day",0%
same,mortality at 100 ppm,"[3]; Nephotettix cincticeps, other pesticide alone 100 ppm, 5th or 6th day",0%
same,mortality at 200 ppm,"[3]; Nephotettix cincticeps, other pesticide alone 200 ppm, 5th or 6th day, read-out: Mortality (%)",0%
same,mortality at 50 ppm,[1]; [4],0%
same,mortality at 100 ppm,[1]; [4],0%
same,mortality at 200 ppm,[1]; [4],0%
emamectin-benzoate,Mortality (%),[1]; other pesticide alone 0.0025 ppm,0%
same,Mortality (%),[1]; other pesticide alone 0.005 ppm,10%
same,Mortality (%),[1]; other pesticide alone 0.01 ppm,30%
spinosad,Mortality (%),[1]; other pesticide alone 1.5 ppm,20%
same,Mortality (%),[1]; other pesticide alone 3.1 ppm,60%
same,Mortality (%),[1]; other pesticide alone 6.2 ppm,60%
"O=C(NC(=O)c1c(F)cccc1F)Nc1ccc(Oc2ccc(C(F)(F)F)cc2Cl)cc1F [Flufenoxuron, flufenoxuron]",mortality at 0.01 ppm,[1]; [4],0%
same,mortality at 0.02 ppm,[1]; [4],20%
same,mortality at 0.04 ppm,[1]; [4],20%
"Nc1nc(N)nc(NC2CC2)n1 [Cyromazine, cyromazine]",mortality at 25 ppm,[1]; [4],30%
same,mortality at 50 ppm,[1]; [4],60%
"O=C(Nc1ccccc1)N(Cc1ccc(Cl)cc1)C1CCCC1 [Pencycuron, pencycuron]",mortality at 125 ppm,[1]; [4],0%
"O=[N+]([O-])NC1=NCCN1Cc1ccc(Cl)nc1 [Imidacloprid, imidacloprid]",mortality at 0.05 ppm,"[2]; Myzus persicae, foliar",60%
same,mortality at 0.1 ppm,"[2]; Myzus persicae, foliar, other pesticide alone 0.1 ppm",67%
same,mortality at 12.5 ppm,[1]; [4],20%
same,mortality at 50 ppm,[1]; [4],75%
"CCc1ccc(C(=O)NN(C(=O)c2cc(C)cc(C)c2)C(C)(C)C)cc1 [Tebufenozide, tebufenozide]",mortality at 1.5 ppm,[1]; [4],20%
"CC1(C)C(C=C(Cl)Cl)C1C(=O)OCc1cccc(Oc2ccccc2)c1 (stereo not shown) [Permethrin, permethrin]",mortality at 3.1 ppm,[1]; [4],0%
"C/C(=N\C#N)N(C)Cc1ccc(Cl)nc1 [Acetamiprid, acetamiprid]",mortality at 12.5 ppm,[1]; [4],0%
same,mortality at 25 ppm,[1]; [4],10%
"FC(F)(F)c1ccc(OCCCOc2c(Cl)cc(OCC=C(Cl)Cl)cc2Cl)nc1 [Pyridalyl, pyridalyl]",mortality at 0.4 ppm,[1]; [4],0%
same,mortality at 1.5 ppm,[1]; [4],80%
"Cc1ccc(/N=C/N(C)/C=N/c2ccc(C)cc2C)c(C)c1 [Amitraz, amitraz]",mortality at 62.5 ppm,[1]; [4],0%
"CC(C)OC(=O)C(C(=O)OC(C)C)=C1SCCS1 [Isoprothiolane, isoprothiolane]",mortality at 200 ppm,[3]; Nephotettix cincticeps,50%
"Cc1c(Cl)cc(-c2ccc(=O)[nH]n2)cc1Cl [Diclomezine, diclomezine]",mortality at 100 ppm,"[2]; Myzus persicae, foliar",0%
same,mortality at 200 ppm,"[2]; Myzus persicae, foliar",0%
"Cc1cccc2sc3nncn3c12 [Tricyclazole, tricyclazole]",mortality at 100 ppm,"[2]; Myzus persicae, foliar",13%
same,mortality at 200 ppm,"[2]; Myzus persicae, foliar",0%
"N#Cc1nn(-c2c(Cl)cc(C(F)(F)F)cc2Cl)c(N)c1[S+]([O-])C(F)(F)F (stereo not shown) [Fipronil, fipronil]",mortality at 0.4 ppm,[1]; [4],10%
same,mortality at 0.8 ppm,[1]; [4],60%
"CC(C)=CC1C(C(=O)OCc2cccc(Oc3ccccc3)c2)C1(C)C (stereo not shown) [Phenothrin, phenothrin]",mortality at 12.5 ppm,[1]; [4],20%
same,mortality at 25 ppm,[1]; [4],80%
"Cc1ccc(NC(=O)c2snnc2C)cc1Cl [Tiadinil, tiadinil]",mortality at 50 ppm,[1]; [4],0%
same,mortality at 100 ppm,[1]; [4],0%
same,mortality at 200 ppm,[1]; [4],0%
"CCC1(C(=O)N[C@H](C)c2ccc(Cl)cc2)C(C)C1(Cl)Cl (stereo partly shown) [Carpropamid, carpropamid]",mortality at 100 ppm,"[2]; Myzus persicae, foliar",82%
same,mortality at 200 ppm,"[2]; Myzus persicae, foliar",93%
"CCCCCCCCCCCCC1=C(OC(C)=O)C(=O)c2ccccc2C1=O [Acequinocyl, acequinocyl]",mortality at 37.5 ppm,[1]; [4],0%
same,mortality at 75 ppm,[1]; [4],0%
same,mortality at 150 ppm,[1]; [4],0%
"CCOP(=O)(SC(C)CC)N1CCSC1=O (stereo not shown) [Fosthiazate, fosthiazate]",mortality at 25 ppm,[1]; [4],88%
"CN/C(=N\[N+](=O)[O-])NCc1cnc(Cl)s1 [Clothianidin, clothianidin]",mortality at 12.5 ppm,[1]; [4],90%
"C=CCOC1=NS(=O)(=O)c2ccccc21 [Probenazole, probenazole]",mortality at 100 ppm,"[2]; Myzus persicae, foliar",0%
same,mortality at 200 ppm,"[2]; Myzus persicae, foliar",13%
same,mortality at 200 ppm,[3]; Nephotettix cincticeps,0%
